# Laboratory results published in patent publication US4493796A, “Didemnins A, B, C, and derivatives thereof, as antiviral agents” (Board of Trustees, Univ. of Ill., priority 1984, dated 1985).
# Columns and labels:
# Vaccinia virus (DNA) = type: cell-based; settings: VACC.; 50 μg of test compound
# [1] = tested on: Herpes simplex virus type II (DNA); experiment: Agar diffusion plaque inhibition assay, HSV-2; type: cell-based; settings: 50 μg of test compound
# cells = experiment: Agar diffusion plaque inhibition assay, zone of cytotoxicity (cell death); type: cell-based; settings: 50 μg of test compound
# Experimental: These tests were performed by the methods described in the following published reference: (H. E. Renis, C. A. Hollowell, and G. E. Underwood, J. Med. Chem., Vol 10, pp 777-782 (1967)). Both DNA and RNA-containing viruses were used. The results are presented below as the zone of cytotoxicity (cell death)/zone of viral plaque inhibition for 50 μg of test compound.
# PR-8 Influenza (RNA) = type: cell-based, Influenza virus; settings: PR8; 50 μg of test compound
# [2] = tested on: Herpes simplex virus type I (DNA); experiment: Agar diffusion plaque inhibition assay, HSV-1; type: cell-based; settings: 50 μg of test compound
# [3] = tested on: Parainfluenza 3 virus (RNA); type: cell-based; settings: HA-1; 50 μg of test compound
# Equine rhinovirus (RNA) = experiment: Agar diffusion plaque inhibition assay, E.R.; type: cell-based; settings: 50 μg of test compound
# [4] = tested on: Coxsackie A21 virus (RNA); experiment: Agar diffusion plaque inhibition assay, COE; type: cell-based; settings: 50 μg of test compound
compound,measurement,setting,value
COc1ccc(C[C@H]2C(=O)O[C@H](C)[C@H](NC(=O)[C@@H](CC(C)C)N(C)C(=O)C3CCCN3C(=O)C(C)OC(C)=O)C(=O)NC(CC(C)C)C(OC(C)=O)CC(=O)OC(C(C)C)C(=O)C(C)C(=O)N[C@@H](CC(C)C)C(=O)N3CCC[C@H]3C(=O)N2C)cc1 (some centres unmarked) [Diacetyl],zone of viral plaque inhibition,Vaccinia virus (DNA),4
same,zone of viral plaque inhibition,[1],4
same,zone of cytotoxicity (cell death),cells; COE,3
same,zone of cytotoxicity (cell death),cells; E.R.,2
same,zone of cytotoxicity (cell death),cells; HA-1,1
same,zone of cytotoxicity (cell death),cells; HSV-1,3
same,zone of cytotoxicity (cell death),cells; HSV-2,3
same,zone of cytotoxicity (cell death),cells; PR8,3
same,zone of cytotoxicity (cell death),cells; VACC.,3
same,zone of viral plaque inhibition,PR-8 Influenza (RNA),0
same,zone of viral plaque inhibition,[2],4
same,zone of viral plaque inhibition,[3],0
same,zone of viral plaque inhibition,Equine rhinovirus (RNA),4
same,zone of viral plaque inhibition,[4],3
